Experimental data as given in US6407093B1, “1,4-Diazacycloheptane derivatives for the treatment of neurological disorders” (Astrazeneca UK Limited, priority 1998, dated 2002).
pIC50: −log10 of the molar value. Counter-ions that a name gives are not always drawn.

Tests used:
[1] = target: T1, [3H]-emopamil binding site (Cavia porcellus, UniProt Q60490); assay: (−)-3H-Emopamil binding to guinea pig liver membranes; conditions: 0.96 nM (−)-3H-emopamil, 60 minutes at 37° C.
T1 construct: Guinea pig liver membranes: 40 mg/mL original wet weight; from tissue; host or cells: guinea pig liver membranes
T1 sequence (Q60490 1-229): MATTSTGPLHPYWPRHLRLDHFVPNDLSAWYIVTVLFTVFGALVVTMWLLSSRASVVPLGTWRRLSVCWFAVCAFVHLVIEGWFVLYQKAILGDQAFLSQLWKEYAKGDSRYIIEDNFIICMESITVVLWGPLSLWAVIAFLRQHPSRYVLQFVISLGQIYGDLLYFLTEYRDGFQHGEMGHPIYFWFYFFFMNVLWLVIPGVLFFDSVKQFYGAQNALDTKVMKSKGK
Description: -^3H-Emopamil Binding to Guinea Pig Liver Membranes
The method of (−)-^3H-emopamil binding was a modification of Zech, C., Staudinger R., Mühlbacher, J. and Glossmann, H. Novel sites for phenylalkylamines: characterization of a sodium-sensitive drug receptor with (−)-^3H-emopamil. Eur. J. Pharm. 208: 119-130, 1991.
The reaction mixture contained:
Assay buffer: 10 mM Tris-HCl, 0.1 mM phenylmethylsulfonyl fluoride (PMSF), 0.2% bovine serum albumin (BSA), pH 7.4 at 4° C.
Radioligand: 0.96 nM (−)-^3H-emopamil (Amersham).
Guinea pig liver membranes: 40 mg/mL original wet weight.
This mixture was incubated for 60 minutes at 37° C. The incubation was terminated by filtering with a Brandel Cell Harvester over Whatman GF/C filters that had been soaked for at least 120 minutes in 0.3% polyethylenimine (PEI) and washed three times with 5 mL of wash buffer containing 10 mM Tris-HCl, 10 mM MgCl2, 0.2% BSA, pH 7.4 at 25° C. Specific binding was defined with 10 μM emopamil.
Guinea-pig Liver Membrane Preparation
Male guinea pigs were sacrificed by CO2 asphyxiation with dry ice. The livers were quickly excised and weighed and rinsed in membrane preparation buffer containing 10 mM Hepes, 1 mM Tris base-EDTA, 250 mM sucrose, pH 7.4. The livers were then minced, homogenized in 10 times volume with a motor driven Teflon-glass homogenizer with three strokes on ice. […]

[2] = target: L-type voltage sensitive calcium channels (3H-D888 binding site); assay: 3H-D-888 binding to rat brain cortical membranes; conditions: 1 nM 3H-D888, rat cortical membranes, 60 minutes at 25° C.; in vitro selectivity test
Description: -^3H-D-888 Binding to Rat Brain Cortical Membranes
The method of ^3H-D-888 binding was a modification of Reynolds, I. J., Snowman, A. M. and Synder, S. H. (−)-[^3H] Desmethoxyverapamil labels multiple calcium channel modular receptors in brain and skeletal muscle membranes: differentiation by temperature and dihydropyridines. J. Pharmacol. Exp. Ther. 237: no.3, 731-738, 1986.
The assay tubes contained the following: assay buffer: 50 mM Hepes, 0.2% BSA, pH 7.4 radioligand: 1ηM ^3H-D888 (Amersham) rat cortical membranes: 6 mg/ml original wet weight
This mixture was incubated for 60 minutes at 25° C. The assay was terminated by filtering with a Brandel Cell Harvester over Whatman GF/C filters that had been soaked for at least 120 minutes in 0.3% polyethylenamine (PEI) and washed three times with 5 mL of wash buffer containing 20 mM Hepes, 20 mM MgCl2, pH 7.4. Specific binding was measured with 10 μM methoxyverapamil (D-600). This assay was used to determine in vitro selectivity of compounds vs. L-type voltage sensitive calcium channels, i.e high affinity for the ^3H-D888 binding site would show a lack of selectivity.
Rat Brain Cortical Membrane Preparation
Male Sprague-Dawley Rats were sacrificed by decapitation and the brains were quickly excised. The cerebellum and brain stem were removed and discarded; and the rest of the brain was rinsed in 320 mM sucrose. […]

SMILES | melting point | pIC50 [1] | pIC50 [2]
CN1CCCN([C@H]2CCSc3ccccc32)CC1 (as salt: hydrochloride) [Example 5, S(+) 1-Methyl-4-(3,4-dihydro-2H-benzothiopyran-4yl)homopiperazine] | 208 to 209 °C | – | –
CN1CCCN(C2CCSc3ccccc32)CC1 (centres unmarked) (as salt: maleate) [Example 1, 1 -Methyl-4-(3,4-dihydro-2H-benzothiopyran-4-yl)homopiperazine] | 117 to 118 °C | – | –
CC(C)CN1CCCN(C2CCSc3ccccc32)CC1 (centres unmarked) (as salt: maleate) [Example 7, 1-Isobutyl-4-(3,4-dihydro-2H-benzothiopyran-4-yl)homopiperazine] | 148.2 to 148.6 °C | – | –
CN1CCCN([C@H]2CCSc3ccccc32)CC1 [Example 5, S(+) 1-Methyl-4-(3,4-dihydro-2H-benzothiopyran-4yl)homopiperazine] | – | 8.05 | ~4.82
